Source: PMC7619385 (ACS infectious diseases, 2025)
Read-outs that look alike come from different tables or passages of the source.

Assays:
[1] = target: NLuc::LmxCLK1 (Leishmania mexicana, UniProt E9AMP2); experiment: cell-based; format: cell-based; settings: for Target occupancy Run 1 / Target occupancy Run 2 / Target occupancy Average: 10 µM compound, tracer SV366, promastigotes; for Target occupancy Average: mean of two experiments
Summary of the method: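 NanoBRET tracer displacement in live cells expressing NLuc-tagged CLK1, test compounds at 10 µM fixed, 1% DMSO final. Acceptor/donor emission (610/460 nm) ratio gives mBRET, converted to blank-corrected probe occupancy (%); probe KD from single-site saturation binding fits.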

[2] = target: T1, LmxCLK1 (Leishmania mexicana, UniProt E9AMP2); experiment: biochemical; format: binding
T1 sequence (E9AMP2 1-422): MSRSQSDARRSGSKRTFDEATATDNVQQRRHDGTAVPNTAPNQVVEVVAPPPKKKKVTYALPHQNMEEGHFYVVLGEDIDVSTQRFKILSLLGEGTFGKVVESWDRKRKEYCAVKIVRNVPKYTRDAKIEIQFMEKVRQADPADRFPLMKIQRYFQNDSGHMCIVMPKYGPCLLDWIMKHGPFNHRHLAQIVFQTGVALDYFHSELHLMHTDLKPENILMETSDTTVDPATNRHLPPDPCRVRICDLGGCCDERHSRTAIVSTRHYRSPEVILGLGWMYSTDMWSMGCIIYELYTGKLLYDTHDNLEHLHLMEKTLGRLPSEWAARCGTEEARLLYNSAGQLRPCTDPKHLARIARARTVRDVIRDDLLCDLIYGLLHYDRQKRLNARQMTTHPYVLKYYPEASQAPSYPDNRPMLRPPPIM

[3] = read-out: Target occupancy Average
[4] = read-out: Target occupancy Run 1
[5] = read-out: Target occupancy Run 2
[6] = DSF, 10 µM compound, 2 µM LmxCLK1, Run 1, read-out: ΔTm Run 1
[7] = DSF, 10 µM compound, 2 µM LmxCLK1, Run 2, read-out: ΔTm Run 2
[8] = DSF, 10 µM compound, 2 µM LmxCLK1, mean of two runs, read-out: ΔTm Average
[9] = DSF, 10 µM compound, 2 µM LmxCLK1, Run 1
[10] = DSF, 10 µM compound, 2 µM LmxCLK1, Run 2
[11] = DSF, 10 µM compound, 2 µM LmxCLK1, mean of two runs

SMILES	receptor occupancy at 10 µM [1, 3]	receptor occupancy at 10 µM [1, 4]	receptor occupancy at 10 µM [1, 5]	ΔTm at 10 µM [2, 6]	ΔTm at 10 µM [2, 7]	ΔTm at 10 µM [2, 8]	Target occupancy Run 1 [1]	Target occupancy Run 2 [1]	Target occupancy Average [1]	ΔTm Run 1 [2, 9]	ΔTm Run 2 [2, 10]	ΔTm Average [2, 11]	ΔTm Average [2]	ΔTm Run 1 [2]	ΔTm Run 2 [2]
Cc1cnc(NC(=O)Nc2cc(Br)c(C)cc2OC[C@@H]2CNCCO2)cn1 [LY2603618]	-11.8%	7%	-30.5%	0 °C	-0.4 °C	-0.2 °C									
CN(C[C@@H]1COCCO1)S(=O)(=O)Nc1ccc2ccc3ncc(-c4cnn(C)c4)cc3c(=O)c2c1 [MK-2461]	-2.7%	-9.3%	3.8%	0 °C	0.2 °C	0.1 °C									
O=C(O)[C@]1(Cc2cccc(Nc3nccs3)n2)CC[C@@H](Oc2cccc(Cl)c2F)CC1 [MK-5108 (VX-689)]							-2.8%	1.0%	-0.9%	-0.1 °C	-0.2 °C	-0.1 °C			
COC(=O)c1ccc2c(c1)NC(=O)/C2=C(\Nc1ccc(N(C)C(=O)CN2CCN(C)CC2)cc1)c1ccccc1 [Nintedanib (BIBF 1120)]							-1.8%	-11.3%	-6.6%	0.3 °C	0.2 °C	0.2 °C			
COc1cccc2cc(-c3nc([C@H]4CC[C@H](C(=O)O)CC4)n4ncnc(N)c34)[nH]c12 [OSI-027]	-8.9%	5.5%	-23.2%	0.1 °C	-0.4 °C	-0.2 °C									
C#Cc1cccc(Nc2ncnc3cc(OCCOC)c(OCCO)cc23)c1 [OSI-420]							-6.8%	3.7%	-1.5%	0.2 °C	0.1 °C	0.1 °C			
O=C(Nc1ccc(OC(F)(F)F)cc1)c1sccc1NCc1ccnc2ccccc12 [OSI-930]	0.1%	-0.4%	0.6%	0.4 °C	0 °C	0.2 °C									
COc1cccc(-c2cc(=O)c3ccccc3o2)c1N [PD98059]							-16.6%	-0.7%	-8.6%	0.0 °C	-0.2 °C	-0.1 °C			
O=C(NOCC1CC1)c1ccc(F)c(F)c1Nc1ccc(I)cc1Cl [PD184352 (CI-1040)]							-2.3%	-19.9%	-11.1%	0.1 °C	0.1 °C	0.1 °C			
COc1ccc(-c2cc3c(C)nc(N)nc3n([C@H]3CC[C@H](OCCO)CC3)c2=O)cn1 [PF-04691502]							-3.4%	-25.8%	-14.6%				0.2 °C	0.3 °C	0.1 °C
O=C(/C=C/c1ccc2ccccc2n1)c1ccncc1 [PFK15]							-10.7%	-9.2%	-10.0%				0.1 °C	0.2 °C	0.1 °C
CC(C)(C)n1nc(-c2ccc(Cl)cc2)c2c(N)ncnc21 [PP2]							-3.1%	0.5%	-1.3%				0 °C	0.2 °C	-0.2
Nc1ncnc2c1c(-c1cnc3[nH]ccc3c1)nn2C1CCCC1 [PP121]							-0.4%	-14.8%	-7.6%	0.9 °C	0.7 °C	0.8 °C			
COc1ccc(Cl)cc1NC(=O)Nc1cc(C)nc2ccccc12 [PQ 401]							-4.0%	1.2%	-1.4%	0.0 °C	-0.2 °C	-0.1 °C			
CCOc1cc2ncc(C#N)c(Nc3ccc(F)c(Cl)c3)c2cc1NC(=O)/C=C/CN(C)C [Pelitinib (EKB-569), Pelitinib]				9.1 °C	12.5 °C	10.8 ± 1.7 °C			negligible target engagement						
COc1cc(Nc2ncc(F)c(Nc3ccc4c(n3)NC(=O)C(C)(C)O4)n2)cc(OC)c1OC [R406]							6.2%	-5.8%	0.2%				0.4 °C	0.4 °C	0.3 °C
CNC(=O)c1cc(Oc2ccc(NC(=O)Nc3ccc(Cl)c(C(F)(F)F)c3)c(F)c2)ccn1 [Regorafenib (BAY 73-4506)]							-4.0%	-5.3%	-4.6%	0.1 °C	-0.3 °C	-0.1 °C			
Cn1cc(C2=C(c3ccc(Cl)cc3Cl)C(=O)NC2=O)c2ccccc21 [SB216763]	-4.4%	0.9%	-9.6%	0.1 °C	-0.1 °C	0 °C									
Cc1[nH]c(/C=C2\C(=O)Nc3ccc(S(=O)(=O)N(C)c4cccc(Cl)c4)cc32)c(C)c1C(=O)N1CCN(C)CC1 [SU11274]	-6.7%	-7.3%	-6%	-0.1 °C	-0.2 °C	-0.2 °C									
O=C1c2ccc(Nc3ccc(F)cc3F)cc2CCc2ccc(OC[C@H](O)CO)cc21 [Skepinone-L]	-1.4%	6.5%	-9.2%	0 °C	0.1 °C	0.1 °C									
CNC(=O)c1ccccc1Nc1nc(Nc2ccc(N3CCOCC3)cc2OC)ncc1Cl [TAE226 (NVP-TAE226)]							-26.7%	-0.7%	-13.7%	0.2 °C	-0.1 °C	0.0 °C			
CCS(=O)(=O)c1cccc(-c2cc(C(=O)NC3CCN(C)CC3)c(C)c3[nH]c4ncc(C)cc4c23)c1 [TAK-901]	-5.9%	-2.7%	-9.1%	1.5 °C	1.1 °C	1.3 °C									
CCN1/C(=C/C(C)=O)Sc2ccc(OC)cc21 [TG003]							10.1%	-15.2%	-2.5%	1.4 °C	1.2 °C	1.3 °C			
Cc1ccccc1CN1C(=O)C2=C(CCN(Cc3ccccc3)C2)N2CCN=C12 [TIC10]							4.1%	-6.1%	-1.0%				0.2 °C	0.2 °C	0.2 °C
NC(=O)Nc1sc(-c2ccc(F)cc2)cc1C(N)=O [TPCA-1]							1.2%	-7.6%	-3.2%	0.1 °C	0.2 °C	0.2 °C			
O=C(NCc1ccccc1)c1csc(Nc2ccncn2)n1 [Thiazovivin]							-3.6%	1.5%	-1.1%	0.3 °C	0.0 °C	0.2 °C			
CS(=O)(=O)c1ccc(-c2cnc(N)c(C(=O)Nc3ccccc3)n2)cc1 [VE-821]	-2.9%	-11.1%	5.3%	-0.2 °C	-0.5 °C	-0.4 °C									
C[C@@H]1COC(Nc2ccc3ncnc(Nc4ccc(OCc5nccs5)c(Cl)c4)c3c2)=N1 [Varlitinib]	-0.8%	2.7%	-4.3%	0.2 °C	0 °C	0.1 °C									
c1cncc(CN2CCC(n3ncc4c(N5CCOCC5)nc(-c5ccc6[nH]ccc6c5)nc43)CC2)c1 [WAY-600]							4.0%	-10.8%	-3.4%	0.0 °C	-0.4 °C	-0.2 °C			
COc1cc2ncnc(Nc3ccc(O)c(Br)c3)c2cc1OC [WHI-P154]							7.3%	-12.9%	-2.8%	0.1 °C	0.1 °C	0.1 °C			
